Data on 22 compounds can be found in ChEMBL document CHEMBL5038668 (J Med Chem, 2022).

In one data set the target is CYP3A4 (Homo sapiens, UniProt P08684). Briefly: Inhibition of human CYP3A4 at 10 uM incubated for 60 mins by LC/MS/MS analysis relative to control. The format is ADME.
A short description of data set [1]: Lipophilicity, log D of compound at pH 7.4. To be noted: buffer.
In data set [2] the target is Cholesterol 24-hydroxylase (Homo sapiens, UniProt Q9Y6A2). As to the kind of experiment: biochemical.
Description: Inhibition of CH24H expressing human 293-F cells for 15 minutes using [14C] cholesterol as substrate and measured after 5 hrs by trypan blue staining based thin-layer chromatography
The target of another data set is T1, CYP2C8 (Homo sapiens, UniProt P10632).
T1 sequence (P10632 whole entry): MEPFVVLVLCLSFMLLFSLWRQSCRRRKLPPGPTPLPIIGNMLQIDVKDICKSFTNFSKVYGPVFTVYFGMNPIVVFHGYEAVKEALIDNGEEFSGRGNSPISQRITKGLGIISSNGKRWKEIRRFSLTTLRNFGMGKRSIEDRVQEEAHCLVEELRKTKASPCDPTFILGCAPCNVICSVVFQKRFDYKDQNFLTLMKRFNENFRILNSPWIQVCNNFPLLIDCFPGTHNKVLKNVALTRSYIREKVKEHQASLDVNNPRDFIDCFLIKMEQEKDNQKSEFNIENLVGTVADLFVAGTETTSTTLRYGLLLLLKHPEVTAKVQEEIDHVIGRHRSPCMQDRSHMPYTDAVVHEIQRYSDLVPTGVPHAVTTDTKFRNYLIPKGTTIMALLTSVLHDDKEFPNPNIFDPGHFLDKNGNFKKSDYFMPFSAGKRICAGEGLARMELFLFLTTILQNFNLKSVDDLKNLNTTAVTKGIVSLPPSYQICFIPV
Briefly: Inhibition of human CYP2C8 at 10 uM incubated for 60 mins by LC/MS/MS analysis relative to control. The format is ADME.

A further data set addresses CYP2C9 (Homo sapiens, UniProt P11712). Briefly: Inhibition of human CYP2C9 at 10 uM incubated for 60 mins by LC/MS/MS analysis relative to control. The format is ADME.
Another data set deals with CYP2D6 (Homo sapiens, UniProt P10635). Briefly: Inhibition of human CYP2D6 at 10 uM incubated for 60 mins by LC/MS/MS analysis relative to control. In kind it is ADME.
A short description of data set [3]: Plasma concentration in C57BL/6N mouse at 30 mg/kg, po and measured at 1 hr by LC/MS/MS analysis. The format is ADME, organism-based.
Data set [4] in a line: Drug concentration in brain of C57BL/6N mouse at 30 mg/kg,po and measured at 1 hrs by LC/MS/MS analysis. To be noted: read-out: Ct. In kind it is ADME, organism-based.
Another data set deals with Brain. As to the kind of experiment: In vivo inhibition of […] CH24H in C57BL/6N mouse brain assessed as reduction in 24HC level at 30 mg/kg, po for 3 days by HPLC analysis. To be noted: 72 h, time 3 day. In kind it is functional.

Each structure is given as a SMILES string.

Sequence of CYP3A4 (P08684 whole entry): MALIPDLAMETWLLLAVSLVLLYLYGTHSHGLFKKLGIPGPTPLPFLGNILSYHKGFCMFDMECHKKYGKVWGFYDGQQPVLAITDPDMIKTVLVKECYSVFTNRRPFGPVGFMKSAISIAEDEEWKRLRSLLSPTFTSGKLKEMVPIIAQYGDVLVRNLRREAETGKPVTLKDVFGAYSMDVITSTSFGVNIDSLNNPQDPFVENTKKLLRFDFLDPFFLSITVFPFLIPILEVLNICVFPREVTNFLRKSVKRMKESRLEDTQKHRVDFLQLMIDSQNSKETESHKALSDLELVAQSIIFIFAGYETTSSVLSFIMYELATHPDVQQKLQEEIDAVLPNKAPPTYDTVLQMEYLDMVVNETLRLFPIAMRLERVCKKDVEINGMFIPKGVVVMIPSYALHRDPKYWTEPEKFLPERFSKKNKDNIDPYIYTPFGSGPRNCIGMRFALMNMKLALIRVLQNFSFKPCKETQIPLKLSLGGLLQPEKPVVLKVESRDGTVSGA
Sequence of Cholesterol 24-hydroxylase (Q9Y6A2 whole entry): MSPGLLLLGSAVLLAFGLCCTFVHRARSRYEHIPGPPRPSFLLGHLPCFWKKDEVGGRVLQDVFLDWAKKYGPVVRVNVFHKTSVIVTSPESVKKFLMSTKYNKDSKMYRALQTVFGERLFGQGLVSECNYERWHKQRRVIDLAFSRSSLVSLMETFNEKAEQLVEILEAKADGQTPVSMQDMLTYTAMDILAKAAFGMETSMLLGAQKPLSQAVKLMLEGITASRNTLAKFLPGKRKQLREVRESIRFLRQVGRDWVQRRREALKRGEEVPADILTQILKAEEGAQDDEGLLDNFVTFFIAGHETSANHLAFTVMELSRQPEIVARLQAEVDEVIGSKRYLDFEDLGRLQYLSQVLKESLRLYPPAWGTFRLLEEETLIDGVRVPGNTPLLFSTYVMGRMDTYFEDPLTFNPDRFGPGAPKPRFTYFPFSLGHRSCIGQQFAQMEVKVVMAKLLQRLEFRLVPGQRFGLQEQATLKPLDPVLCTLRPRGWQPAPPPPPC
Sequence of CYP2C9 (P11712 whole entry): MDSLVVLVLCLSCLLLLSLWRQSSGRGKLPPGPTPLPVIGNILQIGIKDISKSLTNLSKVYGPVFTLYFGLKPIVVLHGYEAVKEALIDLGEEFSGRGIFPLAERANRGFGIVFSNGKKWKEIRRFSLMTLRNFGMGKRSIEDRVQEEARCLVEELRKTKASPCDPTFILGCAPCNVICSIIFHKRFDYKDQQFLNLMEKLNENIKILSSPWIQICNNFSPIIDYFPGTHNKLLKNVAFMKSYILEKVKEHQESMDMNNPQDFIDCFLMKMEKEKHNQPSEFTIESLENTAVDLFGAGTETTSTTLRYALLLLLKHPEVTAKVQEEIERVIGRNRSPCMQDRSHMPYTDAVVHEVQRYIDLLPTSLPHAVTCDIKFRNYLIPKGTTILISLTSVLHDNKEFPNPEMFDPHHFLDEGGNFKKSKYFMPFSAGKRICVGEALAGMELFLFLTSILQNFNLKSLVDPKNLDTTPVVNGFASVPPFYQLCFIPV
Sequence of CYP2D6 (P10635 whole entry): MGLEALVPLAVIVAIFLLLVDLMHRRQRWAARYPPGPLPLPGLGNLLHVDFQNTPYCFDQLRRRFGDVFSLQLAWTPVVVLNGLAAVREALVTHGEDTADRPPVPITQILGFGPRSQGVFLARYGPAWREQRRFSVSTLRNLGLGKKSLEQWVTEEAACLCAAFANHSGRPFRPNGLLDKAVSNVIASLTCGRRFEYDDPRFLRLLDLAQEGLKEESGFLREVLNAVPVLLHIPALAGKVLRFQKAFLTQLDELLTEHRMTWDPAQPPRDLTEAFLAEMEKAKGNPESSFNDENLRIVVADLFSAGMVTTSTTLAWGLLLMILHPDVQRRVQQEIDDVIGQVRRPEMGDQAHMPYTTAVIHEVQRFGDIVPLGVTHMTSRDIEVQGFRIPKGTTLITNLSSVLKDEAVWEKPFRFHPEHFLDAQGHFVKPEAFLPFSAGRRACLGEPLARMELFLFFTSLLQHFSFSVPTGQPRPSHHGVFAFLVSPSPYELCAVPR

In the case of `CN(C)C(=O)C1CCN(c2cnccc2-n2cc(Br)cn2)CC1`, the inhibition at 1 h, 10 µM against CYP3A4 was 31%. Further, the logD in [1] was determined as 2.1. Moreover, the IC50 in [2] was determined as 9.5 nM.
Turning to `Cc1cnn(-c2ccncc2N2CCC(C(=O)N(C)C)CC2)c1`, the inhibition at 1 h, 10 µM against CYP3A4 stood at 21%; against CYP2C8 it was 2%; on CYP2C9, 19%; on CYP2D6, 3%. Moreover, the logD in data set [1] was 1.6. In addition, the figures for the concentration at 1 h in data set [3] and in data set [4] were 179 µM and 0.102 µM, respectively. In addition, the inhibition in vivo at 30 mg/kg in the data set with Brain was determined as 26%. Besides, in data set [2], 8.5 nM corresponded to half-maximal inhibition (IC50).
`CN(C)C(=O)C1CCN(c2cnccc2-n2cc(C3CC3)cn2)CC1`: on CYP3A4, the inhibition at 1 h, 10 µM was found to be 56%. The compound also registered a pH-dependent lipophilicity (logD) in [1] of 2.1. In addition, the IC50 in data set [2] was 12 nM.
In turn, `O=C(NC1CC1)N1CCN(c2cnccc2-c2ccccc2)CC1` had an IC50 in [2] of 52 nM.
Regarding `O=C(NC1CC1)C1CCN(c2cncnc2-c2ccccc2)CC1`, the inhibition at 1 h, 10 µM against CYP3A4 came out at 50%. In [1], this compound yielded a logD of 1.8. This compound displayed an IC50 in [2] of 44 nM.
`CN(C)C(=O)C1CCN(c2cnccc2-n2cc(Cl)cn2)CC1` displayed an inhibition at 1 h, 10 µM at CYP3A4 of 19%. Further, in [2], it took 24 nM to reach half-maximal inhibition (IC50).
As to `O=C(NC1CC1)C1CCN(c2cnccc2-c2ccccc2)CC1`, the inhibition at 1 h, 10 µM on CYP3A4 was 83%. Moreover, the logD in data set [1] is 2.5. In [2], this compound gave an IC50 of 8.1 nM.
Compound `O=C(NC1CC1)c1ccc(-c2cnccc2-c2ccccc2)cc1` had an IC50 in data set [2] of 74 nM.
Same read-out and setting: then `O=C(NC1CC1)N1CCC(c2cnccc2-c2ccccc2)CC1`, with 950 nM.
With `CCN(C)C(=O)C1CCN(c2cncnc2-c2ccccc2)CC1`, the inhibition at 1 h, 10 µM on CYP3A4 is 35%. This compound had a logD in data set [1] of 2.1. Besides, the IC50 in data set [2] was 14 nM.
The corresponding values for `Cc1ccn(-c2ccncc2N2CCC(C(=O)N(C)C)CC2)n1` are 5%, 1.5 and 1100 nM.
The corresponding values for `CN(C)C(=O)C1CCN(c2cnccc2-c2ccccn2)CC1` are 11%, 1.2 and 68 nM.
The corresponding values for `CN(C)C(=O)C1CCN(c2cnccc2-n2cc(C(F)(F)F)cn2)CC1` are 47%, 2.1 and 65 nM.
For `CN(C)C(=O)C1CCN(c2cncnc2-c2ccccc2)CC1`, the inhibition at 1 h, 10 µM at CYP3A4 is 28%. Further, the logD in [1] worked out at 1.7. In data set [2], this compound returned an IC50 of 16 nM.
The corresponding values for `CN(C)C(=O)C1CCN(c2cnccc2-n2cccn2)CC1` are 1%, 1.1 and 48 nM.
Take `Cc1cnc(-c2ccncc2N2CCC(C(=O)N(C)C)CC2)s1`: the inhibition at 1 h, 10 µM on CYP3A4 stood at 32%. The logD in data set [1] is 2. The compound further returned an IC50 in data set [2] of 12 nM.
In turn, `CNC(=O)C1CCN(c2cncnc2-c2ccccc2)CC1` registered an inhibition at 1 h, 10 µM against CYP3A4 of 31%. The compound further registered a logD in data set [1] of 1.4. In addition, the midpoint of inhibition in data set [2], the IC50, lay at 72 nM.
Turning to `O=C(NC1CC1)C1CCN(c2cnccc2-c2ccccn2)CC1`, at CYP3A4, the inhibition at 1 h, 10 µM stood at 29%. This compound also registered a logD in data set [1] of 1.3. In data set [2], half-maximal inhibition (IC50) was put at 160 nM.
Taken in the same sequence, the figures for `O=C(Nc1ccccc1)C1CCN(c2cncnc2-c2ccccc2)CC1` were 84%, 2.7 and 28 nM.
Taken in the same sequence, the figures for `CN(C)C(=O)C1CCN(c2cncnc2-c2ccc(F)cc2)CC1` were 37%, 1.9 and 7.3 nM.
For `CCNC(=O)C1CCN(c2cncnc2-c2ccccc2)CC1`, on CYP3A4, the inhibition at 1 h, 10 µM was 42%. In data set [1], this compound showed a logD of 1.8. Also, the IC50 in [2] was determined as 58 nM.
Regarding `S=C(NC1CCCCC1)N1CCC(c2cnc[nH]2)CC1` [THIOPERAMIDE], in [2], the IC50 came out at 430 nM.
